The results in this text go back to patent US20250129102A1, “CRYSTAL FORM OF PYRIMIDINE HETEROCYCLIC COMPOUND AND PREPARATION METHOD THEREFOR” (D3 Bio (Wuxi) Co., Ltd., priority 2021, published 2025).

Data set [1] can be described thus: In vitro stability in liver microsomes, CD-1 mice. Type of data set: in vitro ADME. The note with it: mouse, CD-1 mice liver microsomes, 0.5 mg/mL. Here is the method: (§1) Metabolic stabilities of the assay compound in liver microsomes of CD-1 mice, SD rats, beagle dogs, cynomolgus monkeys, and human were assayed, respectively.
(§2) Two 96-well incubation plates were prepared and named T60 incubation plate and NCF60 incubation plate, respectively. 445 μL of microsomal working solutions (liver microsomal protein concentration of 0.56 mg/mL) were added to the T60 incubation plate and the NCF60 incubation plate, respectively, and then the above incubation plates were pre-incubated in a 37° C. water bath for about 10 minutes.
(§3) After the pre-incubation, 5 μL of working solutions of the assay sample or the control compound were added to the T60 incubation plate and the NCF60 incubation plate, respectively, and the mixture was mixed well. 50 μL of potassium phosphate buffer was added to each well of the NCF60 incubation plate to initiate the reaction. 180 μL of stop solution (200 ng/mL tolbutamide and 200 ng/mL labetalol in acetonitrile) and 6 uL of NADPH regeneration system working solution were added to the T0 stop plate, and 54 μL of sample was transferred from T60 incubation plate to T0 stop plate (generation of T0 sample). The reaction was initiated by adding 44 μL of NADPH regeneration system working solution to each well of the T60 incubation plate. Only 54 μL of microsome working solution, 6 uL of NADPH regeneration system working solution and 180 μL of stop solution were added to the Blank plate. Therefore, in samples of the assay compound or the control compound, the final reaction concentration of compound, testosterone, diclofenac and propafenone was 1 μM, the concentration of liver microsomes was 0.5 mg/mL, and the final reaction concentrations of DMSO and acetonitrile in the reaction system were 0.01% (v/v) and 0.99% (v/v), respectively. […] All samples were injected and analyzed by liquid chromatography-tandem mass spectrometry.

The subject of data set [2] is KRAS^G12C-mutated H358 cells. In words: cells. The note with it: Homo sapiens, NCI-H358, 120 h, read-out: NCI-H358 IC50. Here is the method:
The main instrument used in this assay was a Nivo multi-label analyzer (PerkinElmer).
The assay was carried out in duplicate. 78 μL of medium was added to the intermediate plate, and then 2 μL of the serially diluted compound was transferred to each well of the intermediate plate according to the corresponding position. After mixing well, 20 μL per well was transferred to the cell plate. […] The cell plate was incubated in a carbon dioxide incubator for 5 days. Another cell plate was prepared, and the signal value of the cell plate was read on the day of compound addition as the maximum value (Max value in the equation below) to participate in data analysis. 25 μL of cell viability chemiluminescence detection reagent was added to each well of the cell plate, and the plate was incubated at room temperature for 10 minutes to stabilize the luminescence signal. A multi-label analyzer was used for reading the plate. • 3) 25 μL of cell viability chemiluminescence detection reagent was added to each well of the cell plate, and the plate was incubated at room temperature for 10 minutes to stabilize the luminescence signal. A multi-label analyzer was used for reading the plate.

Data set [3] in a line: In vitro stability in liver microsomes, cynomolgus monkeys. Type of data set: in vitro ADME. The note with it: cynomolgus monkey, 0.5 mg/mL. The procedure: as §1, §2, §3
Data set [4] can be described thus: Metabolic stability in hepatocytes, SD rats. Type of data set: in vitro ADME. The note with it: rat, cryopreserved hepatocytes. The procedure: Metabolic stabilities of assay compound in hepatocytes of CD-1 mice, SD rats, beagle dogs, cynomolgus monkeys, and human were assayed, respectively.
Several 96-well sample precipitation plates were prepared and named T0, T15, T30, T60, T90, T120, T0-MC, T120-MC and blank substrates, respectively. The recovery medium and incubation medium were taken out in advance and placed in a 37° C. water bath for pre-heating. Cryopreserved hepatocytes were removed from the liquid nitrogen tank and immediately immersed in a 37° C. water bath (approximately 90 seconds). After the cryopreserved hepatocytes had thawed and loosened, they were poured into a centrifuge tube containing 40 mL of recovery medium, and the tube was gently inverted to allow the cells to be resuspended in the recovery medium. The cells were centrifuged at 100×g at room temperature for 5 min, and the supernatant was removed. The hepatocytes were resuspended in an appropriate volume of incubation medium, and the cell viability was calculated by Trypan Blue staining method. 198 μL of hepatocyte suspension (0.51×10^6 cells/mL) was added to the preheated incubation plate. For the culture medium control group, 198 μL of hepatocyte-free incubation medium was added to T0-MC and T120-MC incubation plate. All incubation plates were pre-incubated in a 37° C. incubator for 10 minutes. Then 2 μL of working solutions of the assay sample and the control compound were added, respectively, and the mixture was mixed well. The incubation plate was immediately put into the shaker in the incubator, and the reaction was initiated while starting the timer. For each time point of each compound, 2 duplicate samples were prepared. The incubation conditions were 37° C., saturated humidity, and 5% CO2. […] All samples were mixed well and analyzed by LC/MS/MS.

With `C=C(F)C(=O)N1CCN(c2nc(OC[C@@]34CCCN3C[C@H](F)C4)nc3c2CO[C@H](c2c(F)c(N)cc(C)c2C(F)(F)F)C3)C[C@@H]1CC#N` [Compound of formula (I)], the CLint scaled at 1 μM in data set [1] amounted to 1130 mL/min/kg; in data set [3], 303 mL/min/kg; in data set [4] (read-out: CLint(liver)) it was 315 mL/min/kg. In addition, the half-life at 1 μM was 4.9 min in data set [1], 6.2 min in data set [3] and 20.6 min in data set [4]. For the same compound, the microsomal CLint at 1 μM in data set [1] (read-out: CLint(hep)) was 285 µL/min/mg; in data set [3] (read-out: CLint(hep)), 225 µL/min/mg. Moreover, the half-maximal inhibitory concentration (IC50) in data set [2] was determined as 0.6 nM. For the same compound, the hepatocyte CLint at 1 μM in data set [4] (read-out: CLint(hep)) came to 67.4 µL/min/1e6 cells.
